# Experimental data: patent publication US8974737B2, “Space Disinfection” (Saban Ventures PTY Limited, priority 2005, dated 2015)
# Like-named read-outs stand apart in the source and are kept apart here.
# Legend:
# [1] = tested on: Bacillus stearothermophillus; details: at 550 ppm; on both the walls and floor
# Method: (§1) Samples were coated with an inoculum at levels of approximately log 6 and air dried for 2 hours on the plastic petri dish (Techno-Plas, Australia) in a laminar flow cabinet. The samples were placed in various positions in the room including on the walls, floor and ceiling.
# (§2) Unless otherwise stated, the operating conditions were: • Solution: 35% peroxide • Temp: 25 degrees • RH: fluctuated 45% to ˜65%. Sometimes 75% • Nebulizer array 2.4 MHz • Peroxide vapour: 300-500 ppm • Air flow post heater: 400-600 cubic meters per hour. • Heater Temp: 80-90 degrees • Peroxide delivery: Optimally approximately 0.75 gram per cubic meter per minute, ie […] for the 8 cubic meter room.
# Aspergillus niger [2] = details: 69 cubic meters, peroxide vapour 500 ppm, contact time 30 min
# Method: as §1, §2
# Pseudomonas aeruginosa = details: 8 cubic meters
# From the text: (§3) The components of the device included a nebuliser array, (6×2 cm diameter transducers in a circular array), a heater element, a first and second fan and a dehumidifier system. The dehumidifier used had been a small air conditioning unit positioned appropriately within the space. The purpose of the first fan was to propel nanoparticles from the heater into the space and the purpose of the second fan was to ensure an equal distribution of the aerosol to all surfaces within the space.
# (§4) Tests were conducted in an 8 cubic meter volume of cubic shape.
# as §1, §2
# The dishes and lids are specifically designed to allow gas exchange with an incubator environment while keeping the dish free from external microbial contamination.
# Aspergillus niger [3] = details: 8 cubic meters
# From the text: as §3, §4, §1, §2
# [4] = closed carriers, peroxide vapour 300 ppm, contact time 20 min
# [5] = open carriers, peroxide vapour 50 ppm, contact time 5 min
# [6] = open carriers, peroxide vapour 50 ppm, contact time 10 min
# [7] = open carriers, peroxide vapour 50 ppm, contact time […]
# [8] = open carriers, peroxide vapour 200 ppm, contact time 5 min
# [9] = open carriers, peroxide vapour 200 ppm, contact time 10 min
# [10] = open carriers, peroxide vapour 200 ppm, contact time 20 min
# [11] = open carriers, peroxide vapour 200 ppm, contact time […]
# [12] = open carriers, peroxide vapour 350 ppm, contact time 5 min
# [13] = open carriers, peroxide vapour 350 ppm, contact time 10 min
# [14] = open carriers, peroxide vapour 350 ppm, contact time 20 min
# [15] = open carriers, peroxide vapour 350 ppm, contact time […]
# [16] = peroxide vapour 250 ppm, contact time 5 min
# [17] = peroxide vapour 250 ppm, contact time 10 min
# [18] = peroxide vapour 250 ppm, contact time 20 min
# [19] = peroxide vapour 250 ppm, contact time 30 min
# [20] = peroxide vapour 500 ppm, contact time 5 min
# [21] = peroxide vapour 500 ppm, contact time 10 min
# [22] = peroxide vapour 500 ppm, contact time 20 min
# [23] = peroxide vapour 500 ppm, contact time 30 min
# [24] = Table 4, peroxide vapour 350 ppm, contact time 15 min
# [25] = Table 4, peroxide vapour 550 ppm, contact time 15 min
# [26] = Table 4, peroxide vapour 550 ppm, contact time 20 min
# [27] = Table 4, peroxide vapour 550 ppm, contact time 30 min
smiles,measurement,setting,value
"OO [Peroxide, hydrogen peroxide]",log reductions,[1],greater than 6 log reductions
same,Floor (log reduction),Aspergillus niger [2]; closed,6.7 log reduction
same,Wall (log reduction),Aspergillus niger [2]; closed,6.7 log reduction
same,Floor (log reduction),Aspergillus niger [2]; open,6.7 log reduction
same,Wall (log reduction),Aspergillus niger [2]; open,6.7 log reduction
same,Wall (log reduction),"Pseudomonas aeruginosa; closed carriers, peroxide vapour 300 ppm, contact time 5 min",6.7 log reduction
same,Wall (log reduction),"Pseudomonas aeruginosa; closed carriers, peroxide vapour 300 ppm, contact time 10 min",6.3 log reduction
same,Floor (log reduction),Pseudomonas aeruginosa; [4],5.8 log reduction
same,Wall (log reduction),Pseudomonas aeruginosa; [4],6.7 log reduction
same,Floor (log reduction),Pseudomonas aeruginosa; [5],TNTC
same,Wall (log reduction),Pseudomonas aeruginosa; [5],3.6 log reduction
same,Floor (log reduction),Pseudomonas aeruginosa; [6],TNTC
same,Wall (log reduction),Pseudomonas aeruginosa; [6],4.3 log reduction
same,Floor (log reduction),Pseudomonas aeruginosa; [7],TNTC
same,Wall (log reduction),Pseudomonas aeruginosa; [7],3.5 log reduction
same,Floor (log reduction),Pseudomonas aeruginosa; [8],5.2 log reduction
same,Wall (log reduction),Pseudomonas aeruginosa; [8],5.7 log reduction
same,Floor (log reduction),Pseudomonas aeruginosa; [9],3.4 log reduction
same,Wall (log reduction),Pseudomonas aeruginosa; [9],5.7 log reduction
same,Floor (log reduction),Pseudomonas aeruginosa; [10],5.7 log reduction
same,Wall (log reduction),Pseudomonas aeruginosa; [10],5.7 log reduction
same,Floor (log reduction),Pseudomonas aeruginosa; [11],4.4 log reduction
same,Wall (log reduction),Pseudomonas aeruginosa; [11],5.7 log reduction
same,Floor (log reduction),Pseudomonas aeruginosa; [12],6.1 log reduction
same,Wall (log reduction),Pseudomonas aeruginosa; [12],5.8 log reduction
same,Floor (log reduction),Pseudomonas aeruginosa; [13],6.1 log reduction
same,Wall (log reduction),Pseudomonas aeruginosa; [13],6.1 log reduction
same,Floor (log reduction),Pseudomonas aeruginosa; [14],6.1 log reduction
same,Wall (log reduction),Pseudomonas aeruginosa; [14],6.1 log reduction
same,Floor (log reduction),Pseudomonas aeruginosa; [15],6.1 log reduction
same,Wall (log reduction),Pseudomonas aeruginosa; [15],4.4 log reduction
same,Wall (log reduction) Closed carriers,Aspergillus niger [3]; [16],5.1 log reduction
same,Wall (log reduction) Open carriers,Aspergillus niger [3]; [16],6.3 log reduction
same,Wall (log reduction) Closed carriers,Aspergillus niger [3]; [17],6.3 log reduction
same,Wall (log reduction) Open carriers,Aspergillus niger [3]; [17],6.3 log reduction
same,Wall (log reduction) Closed carriers,Aspergillus niger [3]; [18],6.3 log reduction
same,Wall (log reduction) Open carriers,Aspergillus niger [3]; [18],6.3 log reduction
same,Wall (log reduction) Closed carriers,Aspergillus niger [3]; [19],6.3 log reduction
same,Wall (log reduction) Open carriers,Aspergillus niger [3]; [19],6.3 log reduction
same,Wall (log reduction) Closed carriers,Aspergillus niger [3]; [20],6.9 log reduction
same,Wall (log reduction) Open carriers,Aspergillus niger [3]; [20],6.9 log reduction
same,Wall (log reduction) Closed carriers,Aspergillus niger [3]; [21],6.9 log reduction
same,Wall (log reduction) Open carriers,Aspergillus niger [3]; [21],6.9 log reduction
same,Wall (log reduction) Closed carriers,Aspergillus niger [3]; [22],6.9 log reduction
same,Wall (log reduction) Open carriers,Aspergillus niger [3]; [22],6.9 log reduction
same,Wall (log reduction) Closed carriers,Aspergillus niger [3]; [23],6.9 log reduction
same,Wall (log reduction) Open carriers,Aspergillus niger [3]; [23],6.9 log reduction
same,Floor (log reduction) Closed carriers,Aspergillus niger [3]; [24],6.1 log reduction
same,Floor (log reduction) Open carriers,Aspergillus niger [3]; [24],6.5 log reduction
same,Wall (log reduction) Closed carriers,Aspergillus niger [3]; [24],5.7 log reduction
same,Wall (log reduction) Open carriers,Aspergillus niger [3]; [24],5.9 log reduction
same,Floor (log reduction) Closed carriers,Aspergillus niger [3]; [25],6.6 log reduction
same,Floor (log reduction) Open carriers,Aspergillus niger [3]; [25],6.7 log reduction
same,Wall (log reduction) Closed carriers,Aspergillus niger [3]; [25],6.3 log reduction
same,Wall (log reduction) Open carriers,Aspergillus niger [3]; [25],6.7 log reduction
same,Floor (log reduction) Closed carriers,Aspergillus niger [3]; [26],7.5 log reduction
same,Floor (log reduction) Open carriers,Aspergillus niger [3]; [26],7.5 log reduction
same,Wall (log reduction) Closed carriers,Aspergillus niger [3]; [26],7.5 log reduction
same,Wall (log reduction) Open carriers,Aspergillus niger [3]; [26],7.5 log reduction
same,Floor (log reduction) Closed carriers,Aspergillus niger [3]; [27],7.5 log reduction
same,Floor (log reduction) Open carriers,Aspergillus niger [3]; [27],7.5 log reduction
same,Wall (log reduction) Closed carriers,Aspergillus niger [3]; [27],6.6 log reduction
same,Wall (log reduction) Open carriers,Aspergillus niger [3]; [27],7.5 log reduction
